From the supplement of paper PMC11061612

Tests used:
Experiment in all cases: combination Emax (second highest fraction inhibited in the dose matrix, 72 h); higher = more inhibition; extreme values may be limits of the assay
[1] = test system: 8305C (Thyroid Gland Carcinoma)
Procedure, shortened: (§1)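 Cell lines grown in DMEM/F12 or RPMI with 10% FBS were plated in 1536-well plates and held 24 hours at 37°C, 5% CO2 before 72 hours of exposure to two-drug dose matrices, with DMSO typically at 0.2%. CellTiter-Glo 2.0 luminescence gave viability, which was converted to inhibition. Vehicle wells were set to 0 and blank wells to 1. Combination Emax is the second-highest inhibition in the matrix, and Bliss excess is the observed combination effect minus the expected EA + EB − EA·EB, where EA and EB are the single-agent effects.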

[2] = test system: CTB-1 (B-Cell Non-Hodgkin's Lymphoma)
Procedure, shortened: as §1

[3] = test system: HDLM-2 (Hodgkin's Lymphoma)
Procedure, shortened: as §1

[4] = test system: HO-1-u-1 (Oral Cavity Carcinoma)
Procedure, shortened: as §1

[5] = test system: Hs-633T (Other Solid Carcinomas)
Procedure, shortened: as §1

[6] = test system: K5 (Thyroid Gland Carcinoma)
Procedure, shortened: as §1

[7] = test system: KARPAS-231 (B-Cell Non-Hodgkin's Lymphoma)
Procedure, shortened: as §1

[8] = test system: LB771-HNC (Head and Neck Carcinoma)
Procedure, shortened: as §1

[9] = test system: LU-139 (Small Cell Lung Carcinoma)
Procedure, shortened: as §1

[10] = test system: LoVo (Colorectal Carcinoma)
Procedure, shortened: as §1

[11] = test system: MHH-PREB-1 (B-Cell Non-Hodgkin's Lymphoma)
Procedure, shortened: as §1

Mewo (Melanoma) = test system: Mewo (Melanoma)
Procedure, shortened: as §1

NCI-H2795 (Mesothelioma) = test system: NCI-H2795 (Mesothelioma)
Procedure, shortened: as §1

[12] = test system: NCI-H69 (Small Cell Lung Carcinoma)
Procedure, shortened: as §1

[13] = test system: NCI-H747 (Colorectal Carcinoma)
Procedure, shortened: as §1

[14] = test system: OVCAR-8 (Ovarian Carcinoma)
Procedure, shortened: as §1

[15] = test system: RPMI-6666 (Non-Cancerous)
Procedure, shortened: as §1

[16] = test system: RT-112 (Bladder Carcinoma)
Procedure, shortened: as §1

[17] = test system: SU-DHL-6 (B-Cell Non-Hodgkin's Lymphoma)
Procedure, shortened: as §1

[18] = test system: SW1271 (Small Cell Lung Carcinoma)
Procedure, shortened: as §1

| SMILES | combination Emax [1] | combination Emax [2] | combination Emax [3] | combination Emax [4] | combination Emax [5] | combination Emax [6] | combination Emax [7] | combination Emax [8] | combination Emax [9] | combination Emax [10] | combination Emax [11] | combination Emax (Mewo (Melanoma)) | combination Emax (NCI-H2795 (Mesothelioma)) | combination Emax [12] | combination Emax [13] | combination Emax [14] | combination Emax [15] | combination Emax [16] | combination Emax [17] | combination Emax [18] |
| --- | --- | --- | --- | --- | --- | --- | --- | --- | --- | --- | --- | --- | --- | --- | --- | --- | --- | --- | --- | --- |
| CC(=O)Nc1cccc(-n2c(=O)n(C3CC3)c(=O)c3c(Nc4ccc(I)cc4F)n(C)c(=O)c(C)c32)c1 [Trametinib] + Cc1nc(-c2cn3c(n2)-c2ccc(-c4cnn(C(C)(C)C(N)=O)c4)cc2OCC3)n(C(C)C)n1 [Taselisib] (first compound max 1 µM, 7x7, partner max 10 µM) | 0.945 | 0.416 | 0.362 | 0.987 | 0.917 | 1 | 0.149 | 0.895 | 0.143 | 0.708 | 0.271 | 0.692 | 1 | 0.688 | 0.952 | 0.594 | 0.675 | 0.884 | 1 | 0.653 |
| CC1(C)CCC(CN2CCN(c3ccc(C(=O)NS(=O)(=O)c4ccc(NCC5CCOCC5)c([N+](=O)[O-])c4)c(Oc4cnc5[nH]ccc5c4)c3)CC2)=C(c2ccc(Cl)cc2)C1 [Venetoclax] + C1CN(CCC1(C(=O)N[C@@H](CCO)C2=CC=C(C=C2)Cl)N)C3=NC=NC4=C3C=CN4 [Capivasertib] (first compound max 1 µM, 7x7, partner max 3 µM) | 0.387 | 0.429 | 0.514 | 0.719 | 0.177 | 0.546 | 0.796 | 0.248 | 0.31 | 0.454 | 0.176 | 0.533 | 0.375 | 0.802 | 0.441 | 0.184 | 0.963 | 0.192 | 0.995 | 0.262 |
| CC1(C)CCC(CN2CCN(c3ccc(C(=O)NS(=O)(=O)c4ccc(NCC5CCOCC5)c([N+](=O)[O-])c4)c(Oc4cnc5[nH]ccc5c4)c3)CC2)=C(c2ccc(Cl)cc2)C1 [Venetoclax] + C=CCn1c(=O)c2cnc(Nc3ccc(N4CCN(C)CC4)cc3)nc2n1-c1cccc(C(C)(C)O)n1 [AZD1775] (first compound max 1 µM, partner max 1 µM) | 0.639 | 0.897 | 0.88 | 0.949 | 0.719 | 0.523 | 1 | 0.518 | 0.831 | 0.741 | 0.846 | 0.621 | 0.658 | 0.425 | 0.479 | 0.798 | 0.996 | 0.978 | 0.941 | 0.552 |
| CC1(C)CCC(CN2CCN(c3ccc(C(=O)NS(=O)(=O)c4ccc(NCC5CCOCC5)c([N+](=O)[O-])c4)c(Oc4cnc5[nH]ccc5c4)c3)CC2)=C(c2ccc(Cl)cc2)C1 [Venetoclax] + CCN(CCO)CCCOc1ccc2c(Nc3cc(CC(=O)Nc4cccc(F)c4)[nH]n3)ncnc2c1 [AZD2811] (first compound max 1 µM, 7x7, partner max 1 µM) | 0.354 | 0.59 | 0.486 | 0.324 | 0.217 | 0.413 | 1 | 0.186 | 0.668 | 0.197 | 0.187 | 0.434 | 0.422 | 0.824 | 0.246 | 0.298 | 0.991 | 0.458 | 0.877 | 0.174 |
| CC1(C)CCC(CN2CCN(c3ccc(C(=O)NS(=O)(=O)c4ccc(NCC5CCOCC5)c([N+](=O)[O-])c4)c(Oc4cnc5[nH]ccc5c4)c3)CC2)=C(c2ccc(Cl)cc2)C1 [Venetoclax] + CN(C)CCCOc1ccc(-c2ccc3ncc4c(c3c2)n(C2CCOCC2)c(=O)n4C)cn1 [AZD0156] (first compound max 1 µM, 7x7, partner max 1 µM) | 0.369 | 0.242 | 0.362 | 0.413 | 0.266 | 0.374 | 0.816 | 0.124 | 0.374 | 0.283 | 0.14 | 0.547 | 0.46 | 0.548 | 0.305 | 0.219 | 0.976 | 0.243 | 0.904 | 0.207 |
| CC1(C)CCC(CN2CCN(c3ccc(C(=O)NS(=O)(=O)c4ccc(NCC5CCOCC5)c([N+](=O)[O-])c4)c(Oc4cnc5[nH]ccc5c4)c3)CC2)=C(c2ccc(Cl)cc2)C1 [Venetoclax] + COc1cc(Nc2ncc3c(n2)-c2ccc(Cl)cc2C(c2c(F)cccc2OC)=NC3)ccc1C(=O)O [Alisertib] (first compound max 1 µM, 7x7, partner max 10 µM) | 0.627 | 0.75 | 0.643 | 0.611 | 0.44 | 0.841 | 1 | 0.697 | 0.738 | 0.48 | 0.199 | 0.416 | 0.936 | 0.837 | 0.419 | 0.487 | 0.967 | 0.673 | 0.96 | 0.326 |
